# In paper PMC9688344, “[^225Ac]Ac-SibuDAB for Targeted Alpha Therapy of Prostate Cancer: Preclinical Evaluation and Comparison with [^225Ac]Ac-PSMA-617” (Cancers, 2022):
# System: immunocompetent FVB mice
# Assay: Tolerability study in immunocompetent mice
# Format: in vivo
# From the text: Five- to six-week-old immunocompetent, female FVB mice were purchased from Charles River Laboratories (Sulzfeld, Germany). After an acclimatization period of at least 7 days, the mice (n = 5 per group) were intravenously injected with 30 kBq [^225Ac]Ac-SibuDAB or 30 kBq [^225Ac]Ac-PSMA-617 and additional mice (n = 7 per group) remained untreated as controls. Mice were monitored by measuring their body mass and potential signs of pain or unease three times a week (Supplementary Material: Section S7). The mice were euthanized on Day 10, Day 28 or on Day 56, respectively, and variable parameters were assessed from blood and tissue samples.
# Hematological analysis was performed using blood samples taken by cardiac puncture immediately after euthanasia. Blood and bone marrow smears were prepared and stained using the Pappenheim protocol. The assessment was carried out by a board-certified veterinary anatomic pathologist (AnaPath Services GmbH, Liestal, Switzerland). Blood plasma parameters were determined in plasma after centrifugation of blood samples obtained shortly before euthanasia (Supplementary Material: Section S7).
# Tissue sections of formalin-fixed paraffin-embedded (FFPE) spleen, salivary glands and kidneys were prepared and stained with hematoxylin and eosin (H&E) by AnaPath Services GmbH (Liestal, Switzerland). The tissues were analyzed by a board certified veterinary pathologist using a pre-defined scoring system (Supplementary Material: Section S7). […]
# The percentage of radioligand bound to mouse or human plasma (A bound) was plotted against the molar ratios of MSA/HSA to radioligand and fitted with a nonlinear regression curve (specific binding with Hill slope, Bmax set to 100%) using GraphPad Prism software (version 8) to obtain the half maximum binding (B 50).
# Results: The results are reported in the main article.
# Purpose: A tolerability study with normal, immunocompetent FVB mice was con-ducted in order to assess potential side effects to the bone marrow, spleen, salivary glands and kidneys after the application of high activities of the 225Ac-labeled PSMA radioligands.
# Methods: Monitoring Body Mass and Signs of Unease: Mice were monitored by meas-uring their body mass (BM) three times a week. The body masses were expressed as the relative body mass, defined as [BMx/BM0], where BMx is the body mass in grams on a given Day x and BM0 is the body mass in grams on Day 0. Endpoint criteria, defined as (i) >15% loss in body mass, (ii) signs of unease and pain or a combination thereof based on a scoring system, were not reached in this stu dy.
# Hematology: Blood cell counts were determined in blood samples taken by cardiac puncture immediately after euthanasia and collected in EDTA tubes (Microvette® 100 K3 EDTA, Sarstedt, Germany). Leukocyte, lymphocyte, erythrocyte and thrombocyte counts as well as hemoglobin and hematocrit values were determined using a hematology ana-lyzer (VetScan HM5, Abaxis, United States). Blood smears were prepared on glass slides with cardiac blood. The bone marrow was collected from the femur, diluted in FCS/H2O (2:1 v/v) and smeared onto microscopy slides using a paintbrush. The slides were stained with a May Grünwald solution and subsequently with diluted Giemsa solution using the Pappenheim method and covered with coverslips using mounting medium (Pertex).
# The assessment of potential morphological ch anges of the blood cells and counting of the subgroups of leukocytes was performed by a board-certified veterinary pathologist (Ana-Path Services GmbH, Liestal, Switzerland).
# Histopathological Analysis: Spleen, salivary glands and kidneys were formalin-fixed and paraffin-embedded. Tissue sections were stained with hematoxylin & eosin (H&E) […]
# Blood Plasma Parameters: Blood plasma parameters were determined in plasma ob-tained from centrifuged retrobulbar blood samples collected in lithium-heparin tubes (Mi-crovette® 200 LH, SARSTEDT). The concentrations of blood urea nitrogen (BUN), alkaline […]
structure (smiles),measurement,setting,value
CC(C)Cc1ccc(C(C)C(=O)NC(CCN)C(=O)NCCCCC(NC(=O)CN2CCN(CC(=O)[O-])CCN(CC(=O)[O-])CCN(CC(=O)[O-])CC2)C(=O)NCC2CCC(C(=O)NC(Cc3ccc4ccccc4c3)C(=O)NCCCCC(NC(=O)NC(CCC(=O)O)C(=O)O)C(=O)O)CC2)cc1.[225Ac+3] (centres unmarked) [[^225Ac]Ac-SibuDAB],Tolerability (body mass),"30 kBq per mouse, until Day 56",well tolerated
same,"Kidneys: Hyperplasia/hypertrophy, tubular, incidence","Day 10, 30 kBq",0
same,"Kidneys: Hyperplasia/hypertrophy, tubular, score average","Day 10, 30 kBq",0.0
same,"Kidneys: Hypertrophy/hyperplasia, tubular with ectasia, incidence","Day 10, 30 kBq",0
same,"Kidneys: Hypertrophy/hyperplasia, tubular with ectasia, score average","Day 10, 30 kBq",0.0
same,"Kidneys: Inflammatory cells, interstitium, incidence","Day 10, 30 kBq",0
same,"Kidneys: Inflammatory cells, interstitium, score average","Day 10, 30 kBq",0.0
same,"Kidneys: Inflammatory cells, pelvis, incidence","Day 10, 30 kBq",0
same,"Kidneys: Inflammatory cells, pelvis, score average","Day 10, 30 kBq",0.0
same,"Kidneys: Mineralization, papilla, incidence","Day 10, 30 kBq",0
same,"Kidneys: Mineralization, papilla, score average","Day 10, 30 kBq",0.0
same,"Kidneys: Tubular basophilia, incidence","Day 10, 30 kBq",0
same,"Kidneys: Tubular basophilia, score average","Day 10, 30 kBq",0.0
same,"Salivary glands: Ductal hyperplasia with inflammatory cells, incidence","Day 10, 30 kBq",0
same,"Salivary glands: Ductal hyperplasia with inflammatory cells, score average","Day 10, 30 kBq",0.0
same,"Salivary glands: Hypertrophy acinar, sublingual, incidence","Day 10, 30 kBq",0
same,"Salivary glands: Hypertrophy acinar, sublingual, score average","Day 10, 30 kBq",0.0
same,"Salivary glands: Mononuclear cell foci, incidence","Day 10, 30 kBq",1
same,"Salivary glands: Mononuclear cell foci, score average","Day 10, 30 kBq",1.0
same,"Salivary glands: Necrosis, multifocal, serous acinar cells, incidence","Day 10, 30 kBq",two out of five
same,"Salivary glands: Necrosis, multifocal, serous acinar cells, score average","Day 10, 30 kBq",1.0
same,"Salivary glands: Vacuolation, incidence","Day 10, 30 kBq",1
same,"Salivary glands: Vacuolation, score average","Day 10, 30 kBq",1.0
same,"Spleen: Extramedullary hematopoiesis, incidence","Day 10, 30 kBq",5
same,"Spleen: Extramedullary hematopoiesis, score average","Day 10, 30 kBq",1.2
same,"Spleen: Hyperplasia, lymphoid, incidence","Day 10, 30 kBq",1
same,"Spleen: Hyperplasia, lymphoid, score average","Day 10, 30 kBq",1.0
same,"Spleen: Pigment, incidence","Day 10, 30 kBq",5
same,"Spleen: Pigment, score average","Day 10, 30 kBq",1.0
same,mice with relative increase of neutrophilic blasts (metamyelocytes) in peripheral blood,"Day 10, 30 kBq",one out of five
same,myelopoiesis in bone marrow smears (group value),"Day 10, 30 kBq",66%
same,"Salivary glands: Necrosis, multifocal, serous acinar cells, incidence","Day 10, 30 kBq, listed as [225Ac]Ac-SibuDAB",2
same,Bone marrow % E,"Day 10, mouse M1",30%
same,Bone marrow % M,"Day 10, mouse M1",70%
same,"Bone marrow smear, Notes","Day 10, mouse M1","More blasts, neutrophilic row"
same,Bone marrow % E,"Day 10, mouse M2",50%
same,Bone marrow % M,"Day 10, mouse M2",50%
same,Bone marrow % E,"Day 10, mouse M3",40%
same,Bone marrow % M,"Day 10, mouse M3",60%
same,"Blood smear, Notes","Day 10, mouse M4",More neutrophilic blasts (Metamyelocyte)
same,Bone marrow % E,"Day 10, mouse M4",30%
same,Bone marrow % M,"Day 10, mouse M4",70%
same,"Bone marrow smear, Notes","Day 10, mouse M4","More blasts, neutrophilic row"
same,Bone marrow % E,"Day 10, mouse M5",20%
same,Bone marrow % M,"Day 10, mouse M5",80%
same,"Bone marrow smear, Notes","Day 10, mouse M5","More blasts, neutrophilic row"
same,Albumin concentration in blood plasma,"Day 28, 30 kBq",26 ± 1 g/L
same,Blood urea nitrogen,"Day 28, 30 kBq",9.1 ± 1.1 mmol/L
same,Erythrocyte counts,"Day 28, 30 kBq",8.7 ± 0.3 × 10^12/L
same,Hematocrit,"Day 28, 30 kBq",43 ± 1%
same,Hemoglobin,"Day 28, 30 kBq",11.2 ± 0.5 g/dL
same,"Kidneys: Hyperplasia/hypertrophy, tubular, incidence","Day 28, 30 kBq",0
same,"Kidneys: Hyperplasia/hypertrophy, tubular, score average","Day 28, 30 kBq",0.0
same,"Kidneys: Hypertrophy/hyperplasia, tubular with ectasia, incidence","Day 28, 30 kBq",0
same,"Kidneys: Hypertrophy/hyperplasia, tubular with ectasia, score average","Day 28, 30 kBq",0.0
same,"Kidneys: Inflammatory cells, interstitium, incidence","Day 28, 30 kBq",1
same,"Kidneys: Inflammatory cells, interstitium, score average","Day 28, 30 kBq",1.0
same,"Kidneys: Inflammatory cells, pelvis, incidence","Day 28, 30 kBq",2
same,"Kidneys: Inflammatory cells, pelvis, score average","Day 28, 30 kBq",1.0
same,"Kidneys: Mineralization, papilla, incidence","Day 28, 30 kBq",0
same,"Kidneys: Mineralization, papilla, score average","Day 28, 30 kBq",0.0
same,"Kidneys: Tubular basophilia, incidence","Day 28, 30 kBq",0
same,"Kidneys: Tubular basophilia, score average","Day 28, 30 kBq",0.0
same,"Salivary glands: Ductal hyperplasia with inflammatory cells, incidence","Day 28, 30 kBq",0
same,"Salivary glands: Ductal hyperplasia with inflammatory cells, score average","Day 28, 30 kBq",0.0
same,"Salivary glands: Hypertrophy acinar, sublingual, incidence","Day 28, 30 kBq",1
same,"Salivary glands: Hypertrophy acinar, sublingual, score average","Day 28, 30 kBq",1.0
same,"Salivary glands: Mononuclear cell foci, incidence","Day 28, 30 kBq",3
same,"Salivary glands: Mononuclear cell foci, score average","Day 28, 30 kBq",1.0
same,"Salivary glands: Necrosis, multifocal, serous acinar cells, incidence","Day 28, 30 kBq",completely absent
same,"Salivary glands: Necrosis, multifocal, serous acinar cells, score average","Day 28, 30 kBq",0.0
same,"Salivary glands: Vacuolation, incidence","Day 28, 30 kBq",0
same,"Salivary glands: Vacuolation, score average","Day 28, 30 kBq",0.0
same,"Spleen: Extramedullary hematopoiesis, incidence","Day 28, 30 kBq",5
same,"Spleen: Extramedullary hematopoiesis, score average","Day 28, 30 kBq",1.8
same,"Spleen: Hyperplasia, lymphoid, incidence","Day 28, 30 kBq",5
same,"Spleen: Hyperplasia, lymphoid, score average","Day 28, 30 kBq",1.2
same,"Spleen: Pigment, incidence","Day 28, 30 kBq",5
same,"Spleen: Pigment, score average","Day 28, 30 kBq",2.0
same,"Salivary glands: Necrosis, multifocal, serous acinar cells, incidence","Day 28, 30 kBq, listed as [225Ac]Ac-SibuDAB",0
same,Bone marrow % E,"Day 28, mouse M1",40%
same,Bone marrow % M,"Day 28, mouse M1",60%
same,Bone marrow % E,"Day 28, mouse M2",50%
same,Bone marrow % M,"Day 28, mouse M2",50%
same,Bone marrow % E,"Day 28, mouse M3",40%
same,Bone marrow % M,"Day 28, mouse M3",60%
same,Bone marrow % E,"Day 28, mouse M4",50%
same,Bone marrow % M,"Day 28, mouse M4",50%
same,Bone marrow % E,"Day 28, mouse M5",50%
same,Bone marrow % M,"Day 28, mouse M5",50%
same,"Kidneys: Hyperplasia/hypertrophy, tubular, incidence","Day 56, 30 kBq",1
same,"Kidneys: Hyperplasia/hypertrophy, tubular, score average","Day 56, 30 kBq",1.0
same,"Kidneys: Hypertrophy/hyperplasia, tubular with ectasia, incidence","Day 56, 30 kBq",0
same,"Kidneys: Hypertrophy/hyperplasia, tubular with ectasia, score average","Day 56, 30 kBq",0.0
same,"Kidneys: Inflammatory cells, interstitium, incidence","Day 56, 30 kBq",1
same,"Kidneys: Inflammatory cells, interstitium, score average","Day 56, 30 kBq",1.0
same,"Kidneys: Inflammatory cells, pelvis, incidence","Day 56, 30 kBq",1
same,"Kidneys: Inflammatory cells, pelvis, score average","Day 56, 30 kBq",1.0
same,"Kidneys: Mineralization, papilla, incidence","Day 56, 30 kBq",0
same,"Kidneys: Mineralization, papilla, score average","Day 56, 30 kBq",0.0
same,"Kidneys: Tubular basophilia, incidence","Day 56, 30 kBq",2
same,"Kidneys: Tubular basophilia, score average","Day 56, 30 kBq",1.0
same,"Salivary glands: Ductal hyperplasia with inflammatory cells, incidence","Day 56, 30 kBq",0
same,"Salivary glands: Ductal hyperplasia with inflammatory cells, score average","Day 56, 30 kBq",0.0
same,"Salivary glands: Hypertrophy acinar, sublingual, incidence","Day 56, 30 kBq",0
same,"Salivary glands: Hypertrophy acinar, sublingual, score average","Day 56, 30 kBq",0.0
same,"Salivary glands: Mononuclear cell foci, incidence","Day 56, 30 kBq",2
same,"Salivary glands: Mononuclear cell foci, score average","Day 56, 30 kBq",1.0
same,"Salivary glands: Necrosis, multifocal, serous acinar cells, incidence","Day 56, 30 kBq",0
same,"Salivary glands: Necrosis, multifocal, serous acinar cells, score average","Day 56, 30 kBq",0.0
same,"Salivary glands: Vacuolation, incidence","Day 56, 30 kBq",0
same,"Salivary glands: Vacuolation, score average","Day 56, 30 kBq",0.0
same,"Spleen: Extramedullary hematopoiesis, incidence","Day 56, 30 kBq",5
same,"Spleen: Extramedullary hematopoiesis, score average","Day 56, 30 kBq",1.8
same,"Spleen: Hyperplasia, lymphoid, incidence","Day 56, 30 kBq",0
same,"Spleen: Hyperplasia, lymphoid, score average","Day 56, 30 kBq",0.0
same,"Spleen: Pigment, incidence","Day 56, 30 kBq",5
same,"Spleen: Pigment, score average","Day 56, 30 kBq",2.0
same,Bone marrow % E,"Day 56, mouse M1",40%
same,Bone marrow % M,"Day 56, mouse M1",60%
same,Bone marrow % E,"Day 56, mouse M2",30%
same,Bone marrow % M,"Day 56, mouse M2",70%
same,Bone marrow % E,"Day 56, mouse M3",40%
same,Bone marrow % M,"Day 56, mouse M3",60%
same,Bone marrow % E,"Day 56, mouse M4",40%
same,Bone marrow % M,"Day 56, mouse M4",60%
same,Bone marrow % E,"Day 56, mouse M5",40%
same,Bone marrow % M,"Day 56, mouse M5",60%
